Experimental data published in patent US20040116535A1, “Use” (priority 2001, published 2004).
Entries after “also recorded” stand apart in the source; their conditions may differ. Read-outs that look alike come from different tables or passages of the source.

What was measured:
tinnitus [1] = settings: no statistically significant difference to placebo (35%); cited from earlier work
tinnitus [2] = settings: difference to placebo (30%) not significant; cited from earlier work
tinnitus [3] = tested on: tinnitus
inferior colliculus = settings: activity believed to be representative of tinnitus; cited from earlier work
GABA = settings: cited from earlier work
allodynia = test: Different allodynia model, i.v. injected mex enantiomers (Nordmark and Schött, unpublished observations); format: in vivo; settings: 25 mg/kg i.v.
tinnitus [4] = settings: tocainide infusion; placebo infusion 5%; cited from earlier work
[5] = cited from earlier work
tinnitus [6] = settings: 32 patients; 200 mg 3 times daily for 30 days; cited from earlier work
tinnitus [7] = settings: 300 mg mex per day orally for one or two weeks; cited from earlier work
[8] = tested on: allodynia from rat nerve root ligation; settings: cited from earlier work

Compound: NC(=O)N1c2ccccc2C=Cc2ccccc21 [carbamazepine]
- positive results for the drug (tinnitus [1]): 45%

Compound: CNCCC=C1c2ccccc2CCc2ccccc21 [nortriptyline]
- reduction of tinnitus sensation (tinnitus [2]): 43%

Compound: CCN(CC)CC(=O)Nc1c(C)cccc1C [lidocaine]
- side effects (tinnitus [3]; Case 1, 100 mg lidocaine i.v.): no side effects
- tinnitus intensity reduction (VAS) (tinnitus [3]; Case 1, 100 mg lidocaine i.v. over 5 min, 70 min after the start): 96%
- time after which tinnitus returned to the initial level (tinnitus [3]; Case 2, lidocaine i.v.): about 2 min
- tinnitus (VAS) (tinnitus [3]; Case 2, lidocaine i.v., 30 s after injection): no tinnitus
- tinnitus increase above the base level (tinnitus [3]; Case 2, lidocaine i.v., at 30 min): 46%
- tinnitus (VAS) (tinnitus [3]; Case 2, lidocaine i.v., less than one min after the start of the injection): vanished completely
- reduction in tinnitus intensity (tinnitus [3]; Case 3, lidocaine): small reductions; also recorded: moderate
- side effects (tinnitus [3]; Case 3, lidocaine): no side effects
- increased spontaneous activity in the inferior colliculus (inferior colliculus): abolished
- effect on GABA (GABA): stimulating effect

Compound: Cc1cccc(C)c1OC[C@H](C)N [(S+)-mex]
- side effects (allodynia): so severe that pain measurements were not possible

Compound: Cc1cccc(C)c1NC(=O)C(C)N (stereo not drawn) [tocainide]
- effect on GABA (GABA): stimulating effect
- reduction in tinnitus intensity (tinnitus [4]): 50%

Compound: 1-(2,6-dimethylphenoxy)-propanamine [mexiletine]
- difference between peak and trough ([5]; after administration every 8 hours): more than 30%
- half-life ([5]; human, in vivo): about 8 hours
- tinnitus intensity reduction (VAS) (tinnitus [3]; Case 1, 500 mg mexiletine infused over 120 min, after 118 min): 95%
- time after which tinnitus returned to normal (tinnitus [3]; Case 2, 500 mg mexiletine): 1 h
- level to which tinnitus was reduced (tinnitus [3]; Case 2, 500 mg mexiletine, shortly before the infusion stopped): 60%
- time after which tinnitus returned to base level (tinnitus [3]; Case 2, 550 mg mexiletine over 90 min): 100 min
- tinnitus (VAS) (tinnitus [3]; Case 2, 550 mg mexiletine over 90 min, after 60 min): completely vanished
- increase in tinnitus intensity (tinnitus [3]; Case 2, 550 mg mexiletine over 90 min, after 214 min): about 40%
- reduction in tinnitus intensity (tinnitus [3]; Case 3, mexiletine): small reductions; also recorded: moderate
- side effects (tinnitus [3]; human, in vivo): no side effects
- effect on GABA (GABA): stimulating effect
- effect on tinnitus compared with placebo (tinnitus [6]): not superior to placebo
- patients showing no effect (tinnitus [7]): 65%
- subjects showing an effect above 50% (tinnitus [7]): 14.6%

Compound: Cc1cccc(C)c1OC[C@@H](C)N [(R−)-mex]
- pain relief (allodynia) compared between the mex enantiomers [8]: considerably greater
